{"source": "patent US9290427B2", "about": "“Anti-invasive compounds” (Universiteit Gent, priority 2012, dated 2016)", "key": {"FaDu cells [1]": {"tested_on": "FaDu cells", "experiment": "SRB test, FaDu", "format": "cell-based, human", "conditions": "1 or 10 μmol·L−1, 24 h", "protocol": "(§1) The SRB assay is used to evaluate growth effects on cells, and measures the total protein content. In this test, 5,000 cells are seeded in a cup of a 96-well plate. Upon a 24 h-attachment period, cells are treated with a certain amount of the test molecule (dissolved in DMSO). After a pre-chosen incubation time, cells are fixed with 50 μL of 50% trichloroacetic acid (2° C., 1 h). Afterward, the plate is rinsed five times with tap water, and air dried overnight.\n(§2) Next, proteins are stained with 75 μL of a 0.4% solution of SRB in AcOH (30 min). Unbound SRB is subsequently removed by washing with a 1% solution of glacial AcOH, whereupon the plate is air dried. Then, bound SRB is redissolved in 100 μL of a 10 mmol·L^−1 tris(hydroxymethyl)aminomethane (Tris) buffer (pH=10.5), after which optical density is determined at 490 nm with a spectrophotometer.\n(§3) In order to verify whether the antiproliferative effects of compound 49, witnessed in BLM and MCF-7/6 cells at high concentrations, were cell specific, additional SRB and MTT assays on a further five cell lines (HCT8-E11, TR146, FaDu, 3T3-L1 and CT5.3) were conducted (FIG. 8). The results for MCF-7/6 cells were added to facilitate comparison.\n(§4) The CT5.3 cell line consists of human myofibroblasts which were isolated from a colon tumor (Van Hoorde et al., 1999). […]"}, "3T3-L1 cells [2]": {"tested_on": "3T3-L1 cells", "experiment": "MTT test, 3T3-L1", "format": "cell-based, murine", "conditions": "10 μmol·L−1, 24 h", "protocol": "(§5) An MTT test provides an indication of cell viability, proliferation and activity through determination of the mitochondrial conversion of 3-(4,5-dimethylthiazol-2-yl)-2,5-diphenyltetrazolium bromide (MTT), a yellow salt, into formazan, a salt that precipitates under the form of blue crystals.\n(§6) In concreto, 5,000 cells are seeded in a cup of a 96 well-plate, treated with the desired amount of the test substance, and incubated for a chosen period of time. Next, 40 μL of a filtered (0.2 μm) 5 mg·mL^−1 solution of MTT in PBS is added to the cup. After 2 h of incubation at 37° C. in the dark, all liquid is removed. The obtained formazan salts are dissolved in 200 μL of DMSO, whereupon optical density is measured at 490 nm.\nas §3\n(§7) The CT5.3 cell line consists of human myofibroblasts which were isolated from a colon tumor (Van Hoorde et al., 1999). 3T3-L1 cells are murine fibroblasts, originating from embryo's of Swiss mice (Todaro and Green, 1963). HCT8-E11, FaDu and TR146 are human epithelial cancer cell lines. […]"}, "[3]": {"tested_on": "HCT8-E11 colon carcinoma cells", "experiment": "MTT test, HCT8-E11", "format": "cell-based, human", "protocol": "as §5, §6, §3, §7"}, "MCF-7/6 cells": {"tested_on": "MCF-7/6 cells", "experiment": "MTT test, MCF-7/6", "format": "cell-based, human", "conditions": "for decrease in mitochondrial activity: FIG. 5", "protocol": "as §5, §6\nThe effects of some chalcone-like compounds on the proliferation of MCF-7/6 cells were investigated. A commonly used method to quantify the metabolic activity of cells and thus to a certain degree cell viability—is the MTT assay. This test provides a measure of mitochondrial activity, as it assesses the reduction of 3-(4,5-dimethylthiazol-2-yl)-2,5-diphenyltetrazolium bromide (MTT), a yellow tetrazole, to the purple formazan; this transformation occurs in the mitochondria of living cells (Mosmann T., 1983).\nThus, the influence of 13 compounds on the mitochondrial activity of MCF-7/6 cells was determined at 3 different concentrations, both after 24 and 48 h of incubation. Assessment of the mitochondrial activity after 192 h of incubation, which would correspond to the duration of the CHI assay, was not possible as the degree of confluence of the cells was too high at that time point.\nThe antiproliferative effects of 4-fluoro-3′,4′,5′-trimethoxychalcone on MCF-7/6 cells were further assessed in the MTT assay upon prolonged incubation, as this would provide a higher degree of relevance to the CHI assay, which has an 8-day incubation period. As mentioned above, cell confluence was too high after 192 h; therefore, an incubation time of 144 h was considered a good compromise."}, "MCF-7/LucF5 cells": {"tested_on": "MCF-7/LucF5 cells", "experiment": "MTT test, MCF-7/LucF5", "format": "cell-based, human", "protocol": "as §5, §6\nIn order to further validate the use of the MCF-7/LucF5 cells in our in vivo experiments, the effects of 4-fluoro-3′,4′,5′-trimethoxychalcone on this cell line in the MTT and SRB assays were determined as well (Van Hoorde L. et al., 1999)."}, "FaDu cells [4]": {"tested_on": "FaDu cells", "experiment": "MTT test, FaDu", "format": "cell-based, human", "protocol": "as §5, §6, §3, §7"}, "TR146 cells [5]": {"tested_on": "TR146 cells", "experiment": "SRB test, TR146", "format": "cell-based, human", "conditions": "1 or 10 μmol·L−1, 24 h", "protocol": "as §1, §2, §3, §4"}, "3T3-L1 cells [6]": {"tested_on": "3T3-L1 cells", "experiment": "SRB test, 3T3-L1", "format": "cell-based, murine", "conditions": "10 μmol·L−1, 24 h, decreasing trend, not significant", "protocol": "as §1, §2, §3, §4"}, "TR146 cells [7]": {"tested_on": "TR146 cells", "experiment": "MTT test, TR146", "format": "cell-based, human", "protocol": "as §5, §6, §3, §7"}, "CT5.3 myofibroblasts [8]": {"tested_on": "CT5.3 myofibroblasts", "experiment": "SRB test, CT5.3", "format": "cell-based, human", "conditions": "10 μmol·L−1, 24 h, decreasing trend, not significant", "protocol": "as §1, §2, §3, §4"}, "BLM melanoma cells": {"tested_on": "BLM melanoma cells", "experiment": "SRB test, BLM", "format": "cell-based", "protocol": "as §1, §2\nAs 4-fluoro-3′,4′,5′-trimethoxychalcone had exerted an anti-invasive activity on BLM melanoma cells in the Matrigel invasion assay, we were intrigued to verify how its effect on the viability of BLM cells would compare to that observed for the MCF-7 cell lines."}, "CT5.3 myofibroblasts [9]": {"tested_on": "CT5.3 myofibroblasts", "experiment": "MTT test, CT5.3", "format": "cell-based, human", "conditions": "10 μmol·L−1, 24 h", "protocol": "as §5, §6, §3, §7"}, "[10]": {"conditions": "elevated concentrations 10-100 μmol·L−1, summary"}}}
{"compound": "COc1cc(C(=O)/C=C/c2ccc(F)cc2)cc(OC)c1OC", "note": "[Compound 49, (2E)-3-(4-Fluorophenyl)-1-(3,4,5-trimethoxyphenyl)propenone]", "values": [{"measurement": "total protein content versus solvent control", "setting": "FaDu cells [1]", "result": "no significant differences"}, {"measurement": "reduction in mitochondrial activity", "setting": "3T3-L1 cells [2]", "result": 30, "unit": "%"}, {"measurement": "reduction in mitochondrial activity", "setting": "[3]; 10 μmol·L−1, 24 h", "result": 40, "unit": "%"}, {"measurement": "reduction in mitochondrial activity", "setting": "[3]; [10]", "result": "~50", "unit": "%"}, {"measurement": "mitochondrial activity relative to solvent control", "setting": "MCF-7/6 cells; 0.1 μmol·L−1, FIG. 6", "result": "increased significantly"}, {"measurement": "mitochondrial activity", "setting": "MCF-7/6 cells; 1 μmol·L−1, 24 h", "result": "the same trend, but without significance"}, {"measurement": "decrease in mitochondrial activity", "setting": "MCF-7/6 cells; 5 μmol·L−1, 24 h", "result": 35, "unit": "%"}, {"measurement": "decrease in mitochondrial activity", "setting": "MCF-7/6 cells; 5 μmol·L−1, 48 h", "result": 25, "unit": "%"}, {"measurement": "reduction in mitochondrial activity", "setting": "MCF-7/6 cells; 10 μmol·L−1, 24 h", "result": 40, "unit": "%"}, {"measurement": "mitochondrial activity relative to solvent control", "setting": "MCF-7/6 cells; 100 and 10 μmol·L−1, FIG. 6 (72 and 144 h), p<0.01", "result": "significant reduction"}, {"measurement": "reduction in mitochondrial activity", "setting": "MCF-7/6 cells; [10]", "result": "~50", "unit": "%"}, {"measurement": "mitochondrial activity", "setting": "MCF-7/LucF5 cells; 0.1 μmol·L−1, 72 h (p=0.0196)", "result": "significant reduction"}, {"measurement": "viability (mitochondrial activity)", "setting": "MCF-7/LucF5 cells; 0.1 μmol·L−1, 144 h", "result": "restoration of viability to the control level"}, {"measurement": "mitochondrial activity", "setting": "MCF-7/LucF5 cells; 100 and 10 μmol·L−1, 72 and 144 h", "result": "significant reduction"}, {"measurement": "reduction in mitochondrial activity", "setting": "MCF-7/LucF5 cells; [10]", "result": "~50", "unit": "%"}, {"measurement": "mitochondrial activity", "setting": "FaDu cells [4]; 1 μmol·L−1, 24 h", "result": "the same trend, but without significance"}, {"measurement": "reduction in mitochondrial activity", "setting": "FaDu cells [4]; 10 μmol·L−1, 24 h", "result": 30, "unit": "%"}, {"measurement": "total protein content versus solvent control", "setting": "TR146 cells [5]", "result": "no significant differences"}, {"measurement": "change in total protein content", "setting": "3T3-L1 cells [6]", "result": "−20", "unit": "%"}, {"measurement": "increase in mitochondrial activity", "setting": "TR146 cells [7]; 1 μmol·L−1, 24 h", "result": 7, "unit": "%"}, {"measurement": "reduction in mitochondrial activity", "setting": "TR146 cells [7]; 10 μmol·L−1, 24 h", "result": 30, "unit": "%"}, {"measurement": "change in total protein content", "setting": "CT5.3 myofibroblasts [8]", "result": "−15", "unit": "%"}, {"measurement": "reduction in total protein content", "setting": "BLM melanoma cells; 0.1 μmol·L−1, 24 h", "result": "no effect was apparent"}, {"measurement": "change in total protein content", "setting": "BLM melanoma cells; 10 μmol·L−1, 24 h, significant reduction", "result": "−20", "unit": "%"}, {"measurement": "reduction in total protein content", "setting": "BLM melanoma cells; 1 and 10 μmol·L−1, 24 h (p<0.01)", "result": 20, "unit": "%"}, {"measurement": "decrease in mitochondrial activity", "setting": "CT5.3 myofibroblasts [9]", "result": 22, "unit": "%"}]}
